Results on 13 compounds are retold here after patent US20230303552A1, “ARYLSULFONYL DERIVATIVES AND THEIR USE AS MUSCARINIC ACETYLCHOLINE RECEPTOR M5 INHIBITORS” (Vanderbilt University, priority 2020, published 2023).

By IC50 is commonly meant the concentration at which inhibition is half-maximal.

The test concerns the target T1, human M5 receptors (hM5) (Homo sapiens, UniProt P08912).
T1 construct: expressed in transfected cells
T1 sequence (P08912 1-532): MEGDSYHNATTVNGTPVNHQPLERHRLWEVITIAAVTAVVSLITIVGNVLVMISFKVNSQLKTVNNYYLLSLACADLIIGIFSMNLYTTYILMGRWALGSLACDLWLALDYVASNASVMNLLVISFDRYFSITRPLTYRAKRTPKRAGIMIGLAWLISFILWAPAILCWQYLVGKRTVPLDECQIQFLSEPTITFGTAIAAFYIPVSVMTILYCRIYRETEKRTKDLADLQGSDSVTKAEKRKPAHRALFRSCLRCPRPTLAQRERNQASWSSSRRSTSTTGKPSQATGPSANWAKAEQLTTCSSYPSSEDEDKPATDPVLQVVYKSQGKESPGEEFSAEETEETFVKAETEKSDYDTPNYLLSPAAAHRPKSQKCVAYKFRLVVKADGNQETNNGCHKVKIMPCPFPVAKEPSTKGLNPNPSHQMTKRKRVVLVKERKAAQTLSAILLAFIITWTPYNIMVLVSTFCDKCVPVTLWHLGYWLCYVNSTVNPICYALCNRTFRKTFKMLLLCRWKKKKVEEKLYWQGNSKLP
In words: Cell-based functional calcium mobilization assay of mAChR M5 activity (inhibition of EC80 acetylcholine response) in CHO cells. To be noted: CHO cells stably expressing hM5; for IC50: calcium flux (Fluo-4), EC80 acetylcholine addition; for EC80 MIN: minimum of EC80 acetylcholine response, normalized to maximum acetylcholine response. In outline:
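CHO cells stably expressing human M5, loaded with Fluo-4 AM in HBSS/20 mM HEPES/2.5 mM probenecid pH 7.4. Compound added 140 s before acetylcholine EC20, then EC80 added 125 s later. Calcium flux normalized to maximal acetylcholine response; IC50 from ten-point curves in the EC80 window.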
(In general: Calcium flux is commonly read through the fluorescence of an indicator in the cells.)

Regarding `Cc1nn(C)cc1S(=O)(=O)N1CCC(C(=O)Nc2ccc3scnc3c2)C(C)(C)C1` (stereo not shown) [Compound 143, N-(benzo[d]thiazol-5-yl)-1-((1,3-dimethyl-1H-pyrazol-4-yl)sulfonyl)-3,3-dimethylpiperidine-4-carboxamide], the IC50 was over 10000 nM and the “EC80 MIN” value worked out at 40%.
The corresponding values for `CC1(C)CN(S(=O)(=O)c2cc3c(cc2F)OCC3)CCC1C(=O)Nc1ccc2scnc2c1` (stereo not shown) [Compound 144, N-(benzo[d]thiazol-5-yl)-1-((6-fluoro-2,3-dihydrobenzofuran-5-yl)sulfonyl)-3,3-dimethylpiperidine-4-carboxamide] are over 10000 nM and 25%.
Taken in the same sequence, the figures for `O=C(Nc1ccc2scnc2c1)C1CCN(S(=O)(=O)c2cc3c(cc2F)OCC3)CC1(F)F` (stereo not shown) [Compound 147, N-(benzo[d]thiazol-5-yl)-3,3-difluoro-1-((6-fluoro-2.3-dihydrobenzofuran-5-yl)sulfonyl)piperidine-4-carboxamide] were 404 nM and 2%.
With `[2H]C1([2H])Oc2ccc(S(=O)(=O)N3C[C@@H](C)[C@@H](C(=O)Nc4ccc5scnc5c4)C3)cc2C1([2H])[2H]` [Compound 148, (3R,4S)-N-(benzo[d]thiazol-5-yl)-1-((2,3-dihydrobenzofuran-5-yl-2,2,3,3-d4)sulfonyl)-4-methylpyrrolidine-3-carboxamide], the IC50 is 30 nM and the “EC80 MIN” value amounted to 3%.
`Cc1noc2ncc(S(=O)(=O)N3CC[C@@H](C(=O)Nc4ccc5scnc5c4)C3)cc12` [Compound 149, (R)-N-(benzuo[d]thiazo1-5-yl)-1-((3-methylisoxazolo[5,4-b]pyridin-5-yl)sulfonyl)pyrrolidine-3-carboxamide]: the IC50 was over 10000 nM and the “EC80 MIN” value turned out to be 36%.
In the case of `O=C(Nc1ccc2scnc2c1)[C@@H]1CCN(S(=O)(=O)c2ccc3c(c2)CCC3)C1` [Compound 150, (R)-N-(benzo[d]thiazol-5-yl)-1-((2,3-dihydro-1H-inden-5-yl)sulfonyl)pyrrolidine-3-carboxamide], the IC50 was over 10000 nM.
For the compound `Cc1noc(C)c1S(=O)(=O)N1CC[C@@H](C(=O)Nc2ccc3scnc3c2)C1` [Compound 151, (R)-N-(benzo[d]thiazo1-5-yl)-1-((3,5-dimethylisoxazol-4-yl)sulfonyl)pyrrolidine-3-carboxamide], the IC50 was 3840 nM and the “EC80 MIN” value was determined as 5%.
With `O=C(Nc1ccc2scnc2c1)[C@@H]1CCN(S(=O)(=O)c2ccc3ncccc3c2)C1` [Compound 152, (R)-N-(benzo[d]thiazol-5-yl)-1-(quinolin-6-ylsulfonyl)pyrrolidine-3-carboxamide], the IC50 is 352 nM and the “EC80 MIN” value is reported as 3%.
With `COc1ccc(S(=O)(=O)N2CC[C@@H](C(=O)Nc3ccc4scnc4c3)C2)c(C)c1` [Compound 153, (R)-N-(benzo[d]thiazo1-5-yl)-1-((4-methoxy-2-methylphenyl)sulfonyl)pyrr olidine-3-carboxarnide], the IC50 is 1470 nM and the “EC80 MIN” value is on record as 3%.
The corresponding values for `O=C(Nc1ccc2scnc2c1)[C@@H]1CCN(S(=O)(=O)c2ccc3c(c2)OCO3)C1` [Compound 154, (R)-1-(benzo[d][1,3]dioxol-5-yisulfonyl)-N-(benzo[d]thiazol-5-yl)pyrrolidine-3-carboxamide] are 350 nM and 3%.
Taken in the same sequence, the figures for `O=C(Nc1ccc2scnc2c1)C1CCN(S(=O)(=O)c2ccccc2-c2ccno2)CC1` [Compound 155, N-(benzo[d]thiazol-5-yl)-1-((2-(isoxazol-5-yl)phenyl)sulfonyl)piperidine-4-carboxamide] were over 10000 nM and 54%.
The corresponding values for `O=C(Nc1ccc2scnc2c1)C1CCN(S(=O)(=O)c2ccccc2F)CC1` [Compound 156, N-(benzo[d]thiazol-5-yl)-1-((2-fluorophcnyl)sulfonyl)piper idine-4-carboxaniide] are over 10000 nM and 6%.
For the compound `Cn1cc(S(=O)(=O)N2CCC(C(=O)Nc3ccc4scnc4c3)CC2)c(C(F)(F)F)n1` [Compound 157, N-(benzo[d]thiazol-5-yl)-1-((1-methyl-3-(trifluoromethyl)-1H-pyrazo1-4-yl)sulfonyl)piperidine-4-carboxamide], the 50% inhibitory concentration (IC50) came to 2340 nM and the “EC80 MIN” value was 4%.
